The AUC(0-inf) is total exposure, with the tail of the curve extrapolated. The Cmax is the highest concentration seen after dosing. In general, Tmax refers to the time from dosing to the highest level. One may read the half-life as how long it takes for the measured level to halve. For orientation: pIC50 means the negative decadic logarithm of the IC50, by convention in mol/L. The term solubility denotes the concentration that dissolves in the medium under given conditions. Lower therefore signals little dissolved substance. For orientation: solubility (kinetic) means solubility judged after dilution from a stock solution rather than from solid. For orientation: pKd means −log10 of the Kd, conventionally taken in molar units. A lower pKd goes with a high Kd.

pIC50, pKd: −log10 of the molar value. Converted amounts (≈) assume the structure as drawn. Read-outs that look alike come from different tables or passages of the source. Bounds are passed on as bounds.

The nature of one series: in vivo. Conditions: NRG/NRGS, mouse, ip, 30 mg/kg.
For the next series, the target named is BLK (Homo sapiens (Human), UniProt P51451). Kind of series: biochemical. Conditions: 10 μM ATP.
In a further series the target is PDGFRβ (Homo sapiens (Human), UniProt P09619). Description: biochemical. Conditions: 10 μM ATP.
For a further series, the target named is RET (Homo sapiens (Human), UniProt P07949). Kind of series: biochemical. Conditions: 10 μM ATP.
A short description of another series: physchem. Conditions: pH 7.4, aqueous buffer, kinetic from dmso stock.
A further series addresses SRPK1 (Homo sapiens (Human), UniProt Q96SB4). Kind of series: biochemical.
Another series has as its system MA9-NRas cells. Kind of series: NRAS IC50 (MA9-NRas cells). Format: cell-based. Conditions: Homo sapiens, read-out: NRAS IC50.
A further series relates to Phospho (P)-STAT5. Kind of series: P-STAT5 AlphaLISA assay in MV4;11 cells. The series is classed as cell-based. Conditions: Homo sapiens, read-out: IC50 of STAT5 phosphorylation.
Series [1] has as its target T1, IRAK1 (Homo sapiens (Human), UniProt P51617). Description: biochemical.
In series [2] the target is T1, IRAK1. Description: Kd kinase binding assay IRAK1.
The next series addresses CDK7/cyclin H (Homo sapiens (Human), UniProt P50613). Kind of series: biochemical.
The target in another series is LCK (Homo sapiens (Human), UniProt P06239). Description: biochemical. The note with it: 10-dose IC50 mode, 10 μM ATP.
Another series relates to P-IRAK4. Description: Immunoblot of compensatory P-IRAK4 in FLT3-ITD AML cells. The note with it: 50 nM. The series is classed as cell-based, human. Background: In western blotting, separated proteins are transferred to a membrane and probed.
The target of another series is FLT3 (Homo sapiens (Human), UniProt P36888). Kind of series: biochemical.
A further series concerns FLT3 phosphorylation. Kind of series: Immunoblot of P-FLT3 in MV4;11 cells. Format: cell-based, human. The note with it: 50 nM, 24 hours.
For another series, the target named is FLT3 (D835Y) (Homo sapiens (Human), UniProt P36888, D835Y). Description: biochemical.
The target in series [3] is Receptor-type tyrosine-protein kinase FLT3 (Homo sapiens, UniProt P36888, ITD). Kind of series: biochemical.
For the next series, the target named is IRAK4 (Homo sapiens (Human), UniProt Q9NWZ3). Description: biochemical.
The conditions of series [4]: NRG/NRGS, mouse, in vivo, ip, 30 mg/kg.
The subject of the next series is IRAK4 phosphorylation. Description: Immunoblot of P-IRAK4 in MDSL cells. Format: cell-based, human. Conditions: 24 hours.
Series [5] concerns normal cord blood CD34+ cells. Kind of series: Colony formation of normal cord blood CD34+ cells. The note with it: 1 μM, 10 days.
A further series deals with MDSL cells. Description: CellTiter-Glo growth of MDSL cells. Conditions: 72 hours, cell-titer glow. Format: cell-based, human. In general terms: Cellular ATP, detected with luciferase, serves as a proxy for viable cell number.
The conditions of series [6]: pH 7.4.
For series [7] the following is noted: PAMPA. For orientation: PAMPA measures passive passage across an artificial lipid membrane.
The mark [8] stands for this setting: MV4;11 cells, 5 hours, AlphaLISA.

Chain of RET (P07949 29-1114 limits assumed): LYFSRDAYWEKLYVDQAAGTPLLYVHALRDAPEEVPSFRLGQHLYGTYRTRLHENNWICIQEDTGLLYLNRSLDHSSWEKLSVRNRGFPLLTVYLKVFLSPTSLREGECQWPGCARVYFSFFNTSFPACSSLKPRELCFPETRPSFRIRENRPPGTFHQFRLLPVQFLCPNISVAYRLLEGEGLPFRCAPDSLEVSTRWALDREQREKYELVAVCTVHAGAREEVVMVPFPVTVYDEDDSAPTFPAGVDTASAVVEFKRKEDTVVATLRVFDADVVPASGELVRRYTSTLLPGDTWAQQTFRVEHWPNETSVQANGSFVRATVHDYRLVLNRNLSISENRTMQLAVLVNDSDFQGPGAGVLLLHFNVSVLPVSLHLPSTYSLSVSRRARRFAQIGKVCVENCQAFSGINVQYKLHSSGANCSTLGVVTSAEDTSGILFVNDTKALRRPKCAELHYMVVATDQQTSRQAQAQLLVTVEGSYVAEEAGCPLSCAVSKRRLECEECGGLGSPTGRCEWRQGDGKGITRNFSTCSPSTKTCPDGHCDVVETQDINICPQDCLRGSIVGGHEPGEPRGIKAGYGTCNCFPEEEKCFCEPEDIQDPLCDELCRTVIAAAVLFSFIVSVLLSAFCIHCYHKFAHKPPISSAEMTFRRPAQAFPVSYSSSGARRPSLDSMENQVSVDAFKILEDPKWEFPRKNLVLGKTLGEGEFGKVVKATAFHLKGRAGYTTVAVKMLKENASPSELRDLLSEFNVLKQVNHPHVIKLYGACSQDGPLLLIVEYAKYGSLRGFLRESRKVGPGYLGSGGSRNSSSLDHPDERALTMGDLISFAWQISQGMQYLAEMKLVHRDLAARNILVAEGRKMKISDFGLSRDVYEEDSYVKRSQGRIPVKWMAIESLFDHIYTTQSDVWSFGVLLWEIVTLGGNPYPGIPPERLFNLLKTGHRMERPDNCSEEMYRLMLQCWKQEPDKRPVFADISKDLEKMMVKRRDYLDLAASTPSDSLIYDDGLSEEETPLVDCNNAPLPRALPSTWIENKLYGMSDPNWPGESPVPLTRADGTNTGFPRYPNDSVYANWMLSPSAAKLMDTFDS
Chain of PDGFRβ (P09619 33-1106 limits assumed): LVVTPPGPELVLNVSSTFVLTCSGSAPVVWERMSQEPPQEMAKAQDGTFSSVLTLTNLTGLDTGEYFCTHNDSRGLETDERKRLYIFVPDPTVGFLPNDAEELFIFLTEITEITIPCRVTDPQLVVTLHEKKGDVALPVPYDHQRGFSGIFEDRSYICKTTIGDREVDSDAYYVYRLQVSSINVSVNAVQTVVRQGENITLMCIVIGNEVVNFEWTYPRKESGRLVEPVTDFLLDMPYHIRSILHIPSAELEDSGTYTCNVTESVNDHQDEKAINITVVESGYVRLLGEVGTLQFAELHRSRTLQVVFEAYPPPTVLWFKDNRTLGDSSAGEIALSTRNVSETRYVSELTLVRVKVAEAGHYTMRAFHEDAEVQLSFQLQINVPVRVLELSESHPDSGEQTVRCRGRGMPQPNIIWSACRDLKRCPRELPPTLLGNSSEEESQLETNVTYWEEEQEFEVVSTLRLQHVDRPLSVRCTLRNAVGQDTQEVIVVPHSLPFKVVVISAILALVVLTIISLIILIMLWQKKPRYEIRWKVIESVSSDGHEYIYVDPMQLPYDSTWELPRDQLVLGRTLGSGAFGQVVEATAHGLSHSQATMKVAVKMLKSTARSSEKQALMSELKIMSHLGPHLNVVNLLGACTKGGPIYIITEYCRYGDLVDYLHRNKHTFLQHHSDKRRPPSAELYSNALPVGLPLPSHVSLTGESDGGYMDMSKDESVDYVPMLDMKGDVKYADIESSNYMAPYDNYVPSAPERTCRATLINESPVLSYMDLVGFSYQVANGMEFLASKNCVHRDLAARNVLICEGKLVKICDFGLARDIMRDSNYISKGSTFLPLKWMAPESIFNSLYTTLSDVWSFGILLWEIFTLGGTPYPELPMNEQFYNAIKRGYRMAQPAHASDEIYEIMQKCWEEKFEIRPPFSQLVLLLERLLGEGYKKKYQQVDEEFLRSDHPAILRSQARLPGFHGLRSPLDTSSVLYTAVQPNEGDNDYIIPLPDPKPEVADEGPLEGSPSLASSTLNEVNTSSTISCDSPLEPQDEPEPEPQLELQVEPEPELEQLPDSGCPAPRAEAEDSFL

Consider `Clc1ccc2ncc(-c3cccc(NC4CCNCC4)n3)n2c1` [Compound I-2, 6-(6-chloroimidazo[1,2-a]pyridin-3-yl)-N-(piperidin-4-yl)pyridin-2-amine], for which the AUC(0-inf) in “in vivo” was determined as 4630 ng·h/mL. The compound also returned a peak concentration (Cmax) in the series “in vivo” of 1710 ng/mL. Besides, the Tmax in “in vivo” is […]. For the same compound, in the series “in vivo”, the half-life was 198 min. Besides, the negative-log IC50 (pIC50) against BLK (IC50 BLK) was […]; against BLK (IC50 BLK, 10-dose IC50 mode), […]; on PDGFRβ (IC50 PDGFRb, 10-dose IC50 mode), 8.45; on PDGFRβ (IC50 PDGFRβ), […]; against RET (IC50 RET), 9.22; on RET (IC50 RET, 10-dose IC50 mode) it was 5.89. Also, the pIC50 against SRPK1 was […]. This compound also had a solubility in “physchem” of more than 48 µg/mL. The same compound registered a solubility (kinetic) in the series “physchem” of more than 48 µM. The Stability (rat) is recorded as […].

On to `Clc1ccc2ncc(-c3cccc(NC4CNC4)n3)n2c1` [Compound I-15, N-(azetidin-3-yl)-6-(6-chloroimidazo[1,2-a]pyridin-3-yl)pyridin-2-amine], for which the Stability was 13 min. In addition, the pIC50 in the series on MA9-NRas cells is 4.78. In “physchem”, the solubility was more than 44 µg/mL. Further, in the series with Phospho (P)-STAT5 (setting [8]), the pIC50 was 8.77.

Take `Clc1ccc2ncc(-c3cccc(NC4CCCNC4)n3)n2c1` (centres unmarked) [Compound I-17, 6-(6-chloroimidazo[1,2-a]pyridin-3-yl)-N-(piperidin-3-yl)pyridin-2-amine]: the pIC50 on BLK (IC50 BLK, 10-dose IC50 mode) was 7.39; at IRAK1 [1] (read-out: IC50 IRAK1), 5.83; against PDGFRβ (IC50 PDGFRb, 10-dose IC50 mode) it was 7.17; against RET (IC50 RET, 10-dose IC50 mode), 7.98; at CDK7/cyclin H, 6.23; at SRPK1, 5.12. At LCK, this compound gave a pIC50 of 6.78. The compound also gave a pKd at IRAK1 [2] of 6.82. This compound also returned a solubility in the series “physchem” of more than 48 µg/mL. For the same compound, the Stability (rat) is given as more than 30.0 min.

`COc1cc2ncc(-c3cccc(NC4CCNC4)n3)n2cc1-c1cn[nH]c1` (centres unmarked) [Compound I-20, 6-(7-methoxy-6-(1H-pyrazol-4-yl)imidazo[1,2-a]pyridin-3-yl)-N-(pyrrolidin-3-yl)pyridin-2-amine]: the pIC50 in the series on MA9-NRas cells is 4.48; on BLK (IC50 BLK, 10-dose IC50 mode), more than 9.29; at IRAK1 [1] (IC50 IRAK1, 10-dose IC50 mode, 10 μM ATP), 8.27; against PDGFRβ (IC50 PDGFRb, 10-dose IC50 mode), 8.90; against RET (IC50 RET, 10-dose IC50 mode), more than 9.29; at FLT3, more than 9.29. For the same compound, the pIC50 is 8.44 in the series with Phospho (P)-STAT5 (MV4-11, 5 h); 6.94 at CDK7/cyclin H; more than 9.29 against FLT3 (D835Y); more than 9.29 in [3]; less than 5.00 against SRPK1; more than 9.29 against IRAK4. Moreover, the pIC50 against LCK is more than 9.29. In addition, in the series on P-IRAK4, the “compensatory phosphorylation of IRAK4 (immunoblot)” value is reported as “did not result in compensatory phosphorylation of IRAK4”. The “FLT3 phosphorylation (immunoblot)” value in the series with FLT3 phosphorylation is listed as “inhibited FLT3 phosphorylation comparably to AC220”. The solubility in “physchem” stood at 4.5 µg/mL (≈ 12 µM). The compound further had a Stability (rat) of 11.6 min.

In the case of `COc1cc2ncc(-c3cccc(NC4CCNC4)n3)n2cc1-c1cccnc1` (centres unmarked) [Compound I-22, 6-(7-methoxy-6-(pyridin-3-yl)imidazo[1,2-a]pyridin-3-yl)-N-(pyrrolidin-3-yl)pyridin-2-amine], in the series “in vivo”, the AUC(0-inf) was determined as 4850 ng·h/mL, the concentration peaked (Cmax) at 1540 ng/mL and the Tmax was 30 min. Moreover, in “physchem”, the solubility was found to be 29 µg/mL (≈ 75 µM) and the solubility (kinetic) stood at 29 µM (≈ 11.2 µg/mL).

Turning to `COc1cc2ncc(-c3cccc(NC4CCNC4)n3)n2cc1-c1cnn(C)c1` (centres unmarked) [Compound I-24, 6-(7-methoxy-6-(1-methyl-1H-pyrazol-4-yl)imidazo[1,2-a]pyridin-3-yl)-N-(pyrrolidin-3-yl)pyridin-2-amine], in “in vivo”, the AUC(0-inf) came to 6800 ng·h/mL, the Cmax is 3570 ng/mL and the Tmax was 4.98 min. This compound also gave a pKd at IRAK1 [2] of 8.54. Moreover, in the series with FLT3 phosphorylation, the “FLT3 phosphorylation (immunoblot)” value is “inhibited FLT3 phosphorylation comparably to AC220”. Besides, the AUCinf. in [4] is reported as 6,800 hr*ng/mL. Further, the “IRAK4 phosphorylation (immunoblot)” value in the series on IRAK4 phosphorylation is on record as “effectively inhibited pIRAK4”. Besides, the “colony formation of normal CD34+ cells” value in series [5] is recorded as “inhibited colony formation”. For the same compound, the “MDSL growth inhibition compared to IRAK-Inh” value with MDSL cells is recorded as “increased ability to inhibit MDSL growth”.

Regarding `COc1cc(Cl)cn2c(-c3cccc(NC4CNC4)n3)cnc12` [Compound I-42, N-(azetidin-3-yl)-6-(6-chloro-8-methoxyimidazo[1,2-a]pyridin-3-yl)pyridin-2-amine], the Stability is recorded as more than 30 min. Moreover, the pIC50 in the series on MA9-NRas cells is 4.68. Also, in “physchem”, the solubility is more than 49 µg/mL.

The compound `c1cc(N[C@@H]2CCNC2)nc(-c2cnc3ccc(-c4cn[nH]c4)cn23)c1` [Compound I-43] displayed a Stability of 5.7 min. The compound also yielded a solubility in “physchem” of 40.1 µg/mL (≈ 116 µM). Also, the negative-log IC50 (pIC50) with Phospho (P)-STAT5 (setting [8]) is 8.18.

As for `Cn1cc(-c2ccc3ncc(-c4cccc(NC5CNC5)n4)n3c2)cn1` [Compound I-46], the pIC50 in the series with MA9-NRas cells was 4.78. In addition, the solubility in the series “physchem” was determined as 43.1 µg/mL (≈ 125 µM). Also, the Stability (rat) is recorded as more than 30.0 min.

Turning to `Fc1cc(F)c(-c2cnc3ccc(Cl)cn23)nc1NC1CNC1` [Compound I-47], the negative-log IC50 (pIC50) in the series on MA9-NRas cells is 5.73. This compound came in with a solubility in the series “physchem” of more than 50 µg/mL. Also, where the note is “rat”, the Stability is more than 30.0 min.

Compound `Fc1cc(F)c(-c2cnc3ccc(Cl)cn23)nc1NC1CNC1` [Compound I-56, N-(azetidin-3-yl)-6-(6-chloroimidazo[1,2-a]pyridin-3-yl)-3,5-difluoropyridin-2-amine] yielded a solubility in series [6] of more than 50.0 µg/mL. Moreover, the Permeability in [7] stood at 1164.1 ×10⁻⁶ cm/s.

With `CC1(COc2ccc3c(c2)ncn3-c2ccc3cccc(N4CCC(N)CC4)c3n2)COC1` [Crenolinib, reference compound], the pIC50 on BLK (10-dose IC50 mode, read-out: IC50 BLK) is 7.68; on RET (10-dose IC50 mode, read-out: IC50 RET) it was 7.86; at SRPK1 (10-dose IC50 mode, 10 μM ATP, read-out: IC50 SRPK1), 4.66.

Turning to `CC(C)(C)c1cc(NC(=O)Nc2ccc(-c3cn4c(n3)sc3cc(OCCN5CCOCC5)ccc34)cc2)no1` [quizartinib, reference compound], the pIC50 with Phospho (P)-STAT5 (MV4-11, 5 h) was 7.93.

The values above are taken from patent publication US11254667B2 (priority 2016, dated 2022).
